# Numbers after ± are expanded uncertainties.
# Legend:
# [1] = refractive index (Na D-line) (dimensionless); wn = mass fraction of the nth substance listed; conditions: 101.3 kPa, Liquid, Standard Abbe refractometry
# [2] = wn = mass fraction of the nth substance listed; conditions: 295 K, w2 = 0
compound,measurement,setting,value
[I-].[Na+] [sodium iodide] + O,refractive index,"[1]; 296 K, w1 = 0.332",1.3939 ± 0.00059
same,refractive index,"[1]; 296 K, w1 = 0.359",1.40055 ± 0.00059
same,refractive index,"[1]; 296 K, w1 = 0.374",1.4045 ± 0.00059
same,refractive index,"[1]; 296 K, w1 = 0.39",1.40905 ± 0.00059
same,refractive index,"[1]; 296 K, w1 = 0.408",1.41365 ± 0.0007
same,refractive index,"[1]; 296 K, w1 = 0.427",1.4193 ± 0.00061
same,refractive index,"[1]; 296 K, w1 = 0.449",1.426 ± 0.0006
same,refractive index,"[1]; 296 K, w1 = 0.46",1.4295 ± 0.00059
same,refractive index,"[1]; 296 K, w1 = 0.472",1.43335 ± 0.00059
same,refractive index,"[1]; 296 K, w1 = 0.485",1.4376 ± 0.00058
same,refractive index,"[1]; 296 K, w1 = 0.498",1.4421 ± 0.00058
same,refractive index,"[1]; 296 K, w1 = 0.513",1.44705 ± 0.00058
same,refractive index,"[1]; 296 K, w1 = 0.528",1.4523 ± 0.00059
same,refractive index,"[1]; 296 K, w1 = 0.544",1.4581 ± 0.00059
same,refractive index,"[1]; 296 K, w1 = 0.56",1.4648 ± 0.00059
same,refractive index,"[1]; 296 K, w1 = 0.579",1.472 ± 0.00058
same,refractive index,"[1]; 296 K, w1 = 0.598",1.4797 ± 0.00058
same,refractive index,"[1]; 298 K, w1 = 0.498",1.4428 ± 0.00058
same,refractive index,"[1]; 298 K, w1 = 0.512",1.44745 ± 0.00059
same,refractive index,"[1]; 298 K, w1 = 0.518",1.44985 ± 0.00059
same,refractive index,"[1]; 298 K, w1 = 0.524",1.45195 ± 0.00059
same,refractive index,"[1]; 298 K, w1 = 0.53",1.45405 ± 0.00059
same,refractive index,"[1]; 298 K, w1 = 0.536",1.45645 ± 0.00059
same,refractive index,"[1]; 298 K, w1 = 0.543",1.45915 ± 0.0006
same,refractive index,"[1]; 298 K, w1 = 0.549",1.4615 ± 0.0006
same,refractive index,"[1]; 298 K, w1 = 0.556",1.46395 ± 0.00058
same,refractive index,"[1]; 298 K, w1 = 0.563",1.4666 ± 0.00058
same,refractive index,"[1]; 298 K, w1 = 0.57",1.4694 ± 0.00059
same,refractive index,"[1]; 298 K, w1 = 0.577",1.4721 ± 0.00058
same,refractive index,"[1]; 298 K, w1 = 0.585",1.4744 ± 0.00058
O [water] + N#C[S-].[K+],refractive index,"[1]; 293 K, w2 = 0",1.3333 ± 0.00058
same,refractive index,"[1]; 298 K, w2 = 0",1.3326 ± 0.00058
same,refractive index,"[1]; 303 K, w2 = 0",1.3321 ± 0.00058
same,refractive index,"[1]; 308 K, w2 = 0",1.33165 ± 0.00058
same,refractive index,"[1]; 313 K, w2 = 0",1.33085 ± 0.00058
same,surface tension liquid-gas,[2]; Wilhelmi plate,72.28 ± 0.4 mN/m
same,mass density,"[2]; 101.3 kPa, Liquid, Buoyancy - hydrostatic balance",999 ± 6 kg/m3
same,viscosity,"[2]; 101.3 kPa, Liquid, Concentric cylinders viscometry",0.975 ± 0.07 mPa·s
